Data taken from ChEMBL document CHEMBL1201862, “PubChem BioAssay data set” (2004).
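Step 1: Grow cells in 96-well plates. Step 2: Expose to compound for 48 hours at 5 concentrations. Step 3: Interpolate endpoints linearly; if unreached, use highest concentration. At the GI50, growth is halved.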 The source made the active and inactive calls. Rule as the data show it: active = GI50 up to about 1.1 µM and inactive = higher. Square brackets hold non-standard residues; d marks the D form. Peptide text beside a SMILES is read from it. * marks the point of attachment. Boc = CC(C)(C)OC(=O)*; OBn = c1ccc(CO*)cc1

Legend:
Experiment in all cases: DTP human tumour cell line panel, 48 h
NCI/ADR-RES = tested on: NCI/ADR-RES
COLO 205 = tested on: COLO 205
SR = tested on: SR
SF-539 = tested on: SF-539
SN12C = tested on: SN12C
IGROV-1 = tested on: IGROV-1
T47D = tested on: T47D
RXF 393 = tested on: RXF 393
CAKI-1 = tested on: CAKI-1
SF-268 = tested on: SF-268
Hs-578T = tested on: Hs-578T
U-251 = tested on: U-251
HL-60 = tested on: HL-60
HT-29 = tested on: HT-29
DU-145 = tested on: DU-145
PC-3 = tested on: PC-3
SK-MEL-28 = tested on: SK-MEL-28
UACC-257 = tested on: UACC-257
K562 = tested on: K562
MDA-N = tested on: MDA-N
MDA-MB-231 = tested on: MDA-MB-231
HOP-92 = tested on: HOP-92
SF-295 = tested on: SF-295
786-0 = tested on: 786-0
A549 = tested on: A549
EKVX = tested on: EKVX
UACC-62 = tested on: UACC-62
HCT-15 = tested on: HCT-15
BT-549 = tested on: BT-549
MOLT-4 = tested on: MOLT-4
SK-OV-3 = tested on: SK-OV-3
CCRF-CEM = tested on: CCRF-CEM
SW-620 = tested on: SW-620
SNB-75 = tested on: SNB-75
HCT-116 = tested on: HCT-116
MCF7 = tested on: MCF7
MDA-MB-435 = tested on: MDA-MB-435
TK-10 = tested on: TK-10
SK-MEL-2 = tested on: SK-MEL-2
OVCAR-4 = tested on: OVCAR-4
KM12 = tested on: KM12
OVCAR-8 = tested on: OVCAR-8
SK-MEL-5 = tested on: SK-MEL-5
SNB-19 = tested on: SNB-19
ACHN = tested on: ACHN
NCI-H226 = tested on: NCI-H226
LOX IMVI = tested on: LOX IMVI
M14 = tested on: M14
NCI-H522 = tested on: NCI-H522
Malme-3M = tested on: Malme-3M
UO-31 = tested on: UO-31
NCI-H23 = tested on: NCI-H23
OVCAR-5 = tested on: OVCAR-5
NCI-H460 = tested on: NCI-H460
OVCAR-3 = tested on: OVCAR-3
RPMI-8226 = tested on: RPMI-8226
HCC 2998 = tested on: HCC 2998
HOP-62 = tested on: HOP-62
A498 = tested on: A498

SMILES: C[C@@H](NC(=O)CNC(=O)OC(C)(C)C)C(=O)N[C@@H](Cc1ccccc1)C(=O)OCc1ccccc1 (Boc-Gly-[dA]-Phe-OBn)
- GI50 (NCI/ADR-RES): > 100 µM (inactive)
- GI50 (COLO 205): 18.2 µM (inactive)
- GI50 (SR): 19.5 µM (inactive)
- GI50 (SF-539): > 100 µM (inactive)
- GI50 (SN12C): > 100 µM (inactive)
- GI50 (IGROV-1): 67.9 µM (inactive)
- GI50 (T47D): 63.4 µM (inactive)
- GI50 (RXF 393): 32 µM (inactive)
- GI50 (CAKI-1): > 100 µM (inactive)
- GI50 (SF-268): 89.1 µM (inactive)
- GI50 (Hs-578T): 22.3 µM (inactive)
- GI50 (U-251): 71.8 µM (inactive)
- GI50 (HL-60): 35.1 µM (inactive)
- GI50 (HT-29): 90.4 µM (inactive)
- GI50 (DU-145): > 100 µM (inactive)
- GI50 (PC-3): 49 µM (inactive)
- GI50 (SK-MEL-28): 20.1 µM (inactive)
- GI50 (UACC-257): 33.7 µM (inactive)
- GI50 (K562): 23.1 µM (inactive)
- GI50 (MDA-N): 36.7 µM (inactive)
- GI50 (MDA-MB-231): 37.1 µM (inactive)
- GI50 (HOP-92): 17.8 µM (inactive)
- GI50 (SF-295): > 100 µM (inactive)
- GI50 (786-0): 84.7 µM (inactive)
- GI50 (A549): > 100 µM (inactive)
- GI50 (EKVX): 97.7 µM (inactive)
- GI50 (UACC-62): 34 µM (inactive)
- GI50 (HCT-15): > 100 µM
- GI50 (BT-549): > 100 µM (inactive)
- GI50 (MOLT-4): 15 µM (inactive)
- GI50 (SK-OV-3): > 100 µM (inactive)
- GI50 (CCRF-CEM): 19.5 µM (inactive)
- GI50 (SW-620): 61.7 µM (inactive)
- GI50 (SNB-75): 43.9 µM (inactive)
- GI50 (HCT-116): 47.3 µM (inactive)
- GI50 (MCF7): > 100 µM (inactive)
- GI50 (MDA-MB-435): 32.4 µM (inactive)
- GI50 (TK-10): > 100 µM (inactive)
- GI50 (SK-MEL-2): 26.7 µM (inactive)
- GI50 (OVCAR-4): > 100 µM (inactive)
- GI50 (KM12): > 100 µM (inactive)
- GI50 (OVCAR-8): > 100 µM (inactive)
- GI50 (SK-MEL-5): 22.8 µM (inactive)
- GI50 (SNB-19): > 100 µM (inactive)
- GI50 (ACHN): 57.9 µM (inactive)
- GI50 (NCI-H226): 51.1 µM (inactive)
- GI50 (LOX IMVI): 20.6 µM (inactive)
- GI50 (M14): 19.8 µM (inactive)
- GI50 (NCI-H522): 26.3 µM (inactive)
- GI50 (Malme-3M): 16.2 µM (inactive)
- GI50 (UO-31): 51.2 µM (inactive)
- GI50 (NCI-H23): > 100 µM (inactive)
- GI50 (OVCAR-5): > 100 µM (inactive)

SMILES: CN1CCC/C1=C1\C(=O)c2cccn2C1=O
- GI50 (NCI/ADR-RES): > 100 µM (inactive)
- GI50 (COLO 205): > 100 µM (inactive)
- GI50 (SR): > 100 µM (inactive)
- GI50 (SN12C): > 100 µM (inactive)
- GI50 (IGROV-1): > 100 µM (inactive)
- GI50 (NCI-H460): > 100 µM (inactive)
- GI50 (T47D): > 100 µM (inactive)
- GI50 (RXF 393): > 100 µM (inactive)
- GI50 (CAKI-1): > 100 µM (inactive)
- GI50 (SF-268): > 100 µM (inactive)
- GI50 (Hs-578T): > 100 µM (inactive)
- GI50 (U-251): > 100 µM (inactive)
- GI50 (HL-60): > 100 µM (inactive)
- GI50 (HT-29): > 100 µM (inactive)
- GI50 (DU-145): > 100 µM (inactive)
- GI50 (PC-3): > 100 µM (inactive)
- GI50 (SK-MEL-28): > 100 µM (inactive)
- GI50 (OVCAR-3): > 100 µM (inactive)
- GI50 (UACC-257): > 100 µM (inactive)
- GI50 (K562): > 100 µM (inactive)
- GI50 (MDA-N): > 100 µM (inactive)
- GI50 (MDA-MB-231): > 100 µM (inactive)
- GI50 (RPMI-8226): > 100 µM (inactive)
- GI50 (HCC 2998): > 100 µM (inactive)
- GI50 (SF-295): > 100 µM (inactive)
- GI50 (786-0): > 100 µM (inactive)
- GI50 (A549): > 100 µM (inactive)
- GI50 (EKVX): > 100 µM (inactive)
- GI50 (UACC-62): > 100 µM (inactive)
- GI50 (HCT-15): > 100 µM
- GI50 (BT-549): > 100 µM (inactive)
- GI50 (MOLT-4): > 100 µM (inactive)
- GI50 (SK-OV-3): > 100 µM (inactive)
- GI50 (CCRF-CEM): > 100 µM (inactive)
- GI50 (SW-620): > 100 µM (inactive)
- GI50 (HOP-62): > 100 µM (inactive)
- GI50 (SNB-75): > 100 µM (inactive)
- GI50 (HCT-116): > 100 µM (inactive)
- GI50 (MCF7): > 100 µM (inactive)
- GI50 (MDA-MB-435): > 100 µM (inactive)
- GI50 (TK-10): > 100 µM (inactive)
- GI50 (SK-MEL-2): > 100 µM (inactive)
- GI50 (OVCAR-4): > 100 µM (inactive)
- GI50 (KM12): > 100 µM (inactive)
- GI50 (OVCAR-8): > 100 µM (inactive)
- GI50 (SK-MEL-5): > 100 µM (inactive)
- GI50 (SNB-19): > 100 µM (inactive)
- GI50 (ACHN): > 100 µM (inactive)
- GI50 (NCI-H226): > 100 µM (inactive)
- GI50 (LOX IMVI): > 100 µM (inactive)
- GI50 (M14): > 100 µM (inactive)
- GI50 (A498): > 100 µM (inactive)
- GI50 (NCI-H522): > 100 µM (inactive)
- GI50 (Malme-3M): > 100 µM (inactive)
- GI50 (UO-31): > 100 µM (inactive)
- GI50 (NCI-H23): > 100 µM (inactive)
- GI50 (OVCAR-5): > 100 µM (inactive)
